Experiments:
[1] = system: E. coli K-12 host strain LBB427, untransformed or transformed with plasmid pXT1457; test: Treatment of E. coli strains with glyphosate in Vogel-Bonner minimal culture medium (Example 7); format: cell-based, Escherichia coli
Procedure: To confirm that the new plasmid was functioning as expected, the wild-type E. coli K-12 host strain LBB427 was transformed with the plasmid pXT1457. Techniques for transforming bacteria, including strains of E. coli, are known in the art (Sambrook and Russell, 2001; Ausubel et al., 2005). The shikimic acid and phenylalanine production levels of this strain were compared to that of the untransformed host strain LBB427. The strains were cultured in 50 milliliters of Vogel-Bonner minimal culture medium (Vogel and Bonner, 1956), consisting of magnesium sulfate heptahydrate (MgSO4-7H2O) at 298 milligrams per liter, anhydrous dibasic potassium phosphate (K2HPO4) at 14.93 grams per liter, sodium ammonium phosphate tetrahydrate (NaNH4HPO4-4H2O) at 5.22 grams per liter, anhydrous citric acid (the free acid form) at 2.73 grams per liter, and glucose at 2.00 grams per liter. The pH of the culture medium was 7.0. For the strain LBB427 transformed with the plasmid pXT1457, ampicillin was included in the culture medium at 100 milligrams per liter. The cultures were grown in flasks, on an incubator shaker operating at 300 rpm and 37 degrees Celsius. At 24 hours after inoculation, the cells were pelleted by centrifugation, and the culture supernatants were analyzed by a high-pressure liquid chromatography (HPLC) assay for shikimic acid and phenylalanine content. To the samples to be assayed, phosphoric acid was added to a final concentration of 6 millimolar. The samples were injected onto a 0.5 centimeter by […] Altec 5 micron Bondapak C-18 column, and the eluate was scanned from 190 to 300 nanometers.
The untransformed host strain LBB427 and the host strain LBB427 transformed with the plasmid pXT1457 were grown in 50 milliliters of the Vogel-Bonner minimal culture medium described in Example 5. For the strain LBB427 transformed with the plasmid pXT1457, ampicillin was included in the culture medium at 100 milligrams per liter. The cultures were grown in flasks, on an incubator shaker operating at 300 rpm and 37 degrees Celsius. At 2.5 hours after inoculation, N-(phosphonomethyl)glycine was added to a concentration of 3.38 grams per liter (20 millimolar). […] At 24 hours after inoculation (i.e., 21.5 hours after N-(phosphonomethyl)glycine addition), the cells were pelleted by centrifugation, and the culture supernatants were analyzed for shikimic acid content using the HPLC assay described in Example 5. The culture supernatants of the host strain LBB427 transformed with the plasmid pXT1457 were also analyzed for phenylalanine content.

Soybean = test: Shikimate accumulation in soybean after glyphosate treatment (Example 2, FIG. 6); format: in vivo; conditions: ROUNDUP WEATHERMAX at 100, 200, 400 and 800 g a.e./ha; 1, 2, 3 and 4 days after treatment
Procedure: Soybean plants were established in a greenhouse in 4 inch pots and treated with glyphosate at an early vegetative stage. Approximately 1 plant per pot was treated at the V2 growth stage. Plants were treated with ROUNDUP WEATHERMAX in a track sprayer, at 0, 100, 200, 400 and 800 g a.e./ha and returned to the greenhouse. All treatments were replicated 5 times. Leaves were harvested at five time points: immediately after spray (t0), and at 1, 2, 3 and 4 days after treatment. After harvest, leaves were frozen on dry ice, weighed, and then stored at −80 C until extraction and analysis.
(§1) For t0 harvest, leaves were harvested immediately after treatment. For the 1, 2, 3 and 4 day harvest, plants were washed thoroughly with water from a spray hose and then allowed to dry before harvest. This procedure allowed for the measurement of the concentration of shikimic acid as well as an estimate of the concentration of glyphosate treatment (t0) and the amount of glyphosate absorbed and retained in treated leaves (1, 2, 3 and 4 days after treatment).
(§2) Leaf tissue was ground frozen on dry ice to a frozen powder. […]
(§3) Extract analysis was performed using both HPLC/MS and HPLC/uv (210 nm) detection. […] Shikimic acid was also analyzed on a separate Agilent 1100 HPLC system equipped with a 4.6 mm×250 mm, 5 micron ODS2 Waters Spherisorb® column (P/N PSS831915) using a photodiode array detector.

[2] = system: E. coli host strain LBB427, untransformed or transformed with plasmid pXT1457 or pXT1483; test: Growth of E. coli strains under phosphate-limiting conditions combined with glyphosate treatment (Example 9); format: cell-based, Escherichia coli; conditions: for Shikimic acid in the culture supernatant: phosphate-limitation, 20 millimolar, 21.5 hours after addition
Description: A phosphate-limiting culture medium was developed by the Applicants, containing anhydrous magnesium sulfate (MgSO4) at 192 milligrams per liter, ammonium chloride (NH4Cl) at 5.35 grams per liter, potassium chloride (KCl) at 3.73 grams per liter, sodium chloride (NaCl) at 1.17 grams per liter, triethanolamine (a buffering compound) at 22.3 grams per liter, and glucose at 1.5 grams per liter. The pH of the culture medium was 7.0. […] This culture medium was designated PF culture medium (standing for phosphate-free culture medium). However, a phosphate-limiting medium may be formulated for use in the present invention such that, while not phosphate-free, it contains minimal amounts of phosphate (i.e., is substantially free of phosphate). […] Generally, such a phosphate-limiting medium should contain phosphate at levels no more than about 1 millimolar, and preferably at levels no more than about 100 micromolar.
For pre-growth of the strains, sources of phosphate were supplied to this culture medium in the form of Casamino acids at 2.2 grams per liter and yeast extract at 300 milligrams per liter. This culture medium was designated PF-CAA/YE culture medium (standing for PF culture medium plus Casamino acids and yeast extract).
The untransformed host strain LBB427 and the host strain LBB427 transformed with the plasmid pXT1457 or with the plasmid pXT1483 were grown initially in 50 milliliters of the PF-CAA/YE culture medium described in Example 8. For the strains of LBB427 transformed with the plasmid pXT1457 or with the plasmid pXT1483, ampicillin was included in the culture medium at 100 milligrams per liter. The cultures were grown for 2.5 hours in flasks, on an incubator shaker operating at 300 rpm and 37 degrees Celsius. The cells in these cultures were pelleted by centrifugation and resuspended in the same volume of the PF culture medium described in Example 8. For the strains of LBB427 transformed with the plasmid pXT1457 or with the plasmid pXT1483, ampicillin was included in the culture medium at 100 milligrams per liter. To these resuspended cultures, N-(phosphonomethyl)glycine was added to a concentration of 3.38 grams per liter (20 millimolar). […] At 24 hours after inoculation (i.e., 21.5 hours after N-(phosphonomethyl)glycine addition), the cells were pelleted by centrifugation, and the culture supernatants were analyzed for shikimic acid content using the HPLC assay described in Example 5.
It is possible that not all of the accumulated shikimate-3-phosphate in these cells had been converted into shikimic acid and excreted into the culture medium. […] The cells were pelleted by centrifugation, and the culture supernatant was analyzed for shikimic acid content using the HPLC assay described in Example 5.

[3] = system: E. coli host strain LBB427 transformed with plasmid pXT1483; test: Shikimic acid from a phosphate-limited high-density fermentation culture with glyphosate (Example 10); format: cell-based, Escherichia coli; conditions: optical density of 40; 20 millimolar; twelve hours after addition; sample at pH 1.0, 60 degrees Celsius for 15 minutes
Procedure: The host strain LBB427 transformed with the plasmid pXT1483 can be grown to high optical densities in a phosphate-limited fermentation culture. Fermentations are conducted in a chemically-defined minimal medium containing 5.9 grams of anhydrous ammonium sulfate ((NH4)2SO4), 1.8 grams of anhydrous dibasic potassium phosphate (K2HPO4), 1.0 grams of monobasic sodium phosphate monohydrate (NaH2PO4—H2O), 550 milligrams of magnesium sulfate heptahydrate (MgSO4-7H2O), 27 milligrams of ferric chloride hexahydrate (FeCl3-6H2O), 0.5 milligrams of zinc sulfate heptahydrate (ZnSO4-7H2O), 0.9 milligrams of cobalt chloride hexahydrate (CoCl2-6H2O), 0.9 milligrams of sodium molybdate dihydrate (Na2MoO4-2H2O), 1.1 milligrams of cupric sulfate pentahydrate (CuSO4-5H2O), 0.3 milligrams of boric acid (H3BO3), and 0.7 milligrams of manganese sulfate monohydrate (MnSO4—H2O) per liter of water. The fermenter is maintained at 37 degrees Celsius. The pH is maintained at 7.0 by the controlled addition of concentrated (about 29%) ammonium hydroxide (NH4OH). […]
Twelve hours after N-(phosphonomethyl)glycine addition, samples of the fermentation cultures are taken for analysis of shikimic acid levels. […] The cells are pelleted by centrifugation, and the culture supernatants are analyzed for shikimic acid content using the HPLC assay described in Example 5.

Alfalfa = test: Shikimate accumulation in alfalfa over time after glyphosate treatment (Example 1, FIG. 5); format: in vivo; conditions: ROUNDUP WEATHERMAX at 100, 200, 400 and 800 g a.e./ha; 1, 2, 3 and 4 days after treatment
Procedure: Alfalfa was established in a greenhouse in 4 inch pots and treated with glyphosate at an early vegetative stage. Approximately 8 plants per pot were treated at the V4 growth stage. Plants were treated with ROUNDUP WEATHERMAX in a track sprayer, at 0, 100, 200, 400 and 800 g a.e./ha and returned to the greenhouse. All treatments were replicated 5 times. Leaves were harvested at five time points: immediately after spray (t0), and at 1, 2, 3 and 4 days after treatment. After harvest, leaves were frozen on dry ice, weighed, and then stored at −80 C until extraction and analysis.
as §1, §2, §3

[4] = LBB427 transformed with pXT1457, 20 millimolar, 21.5 hours after addition

**Q.** For `O=C(O)CNCP(=O)(O)O` [glyphosate, N-(phosphonomethyl)glycine], which “Growth of the cultures” value ([1]; 3.38 grams per liter (20 millimolar), added 2.5 hours after inoculation, LBB427 and LBB427 with pXT1457) is on record?
**A.** almost completely inhibited

**Q.** And the “Phenylalanine in the culture supernatant” value [1, 4]?
**A.** about 50 milligrams of phenylalanine per OD unit per liter

**Q.** And the “Shikimic acid in the culture supernatant” value [1, 4]?
**A.** did not produce detectable levels

**Q.** What about the “Shikimic acid in the culture supernatant” value ([1]; untransformed host strain LBB427, 20 millimolar, 21.5 hours after addition) of the same compound?
**A.** did not produce detectable levels

**Q.** What about the “Shikimic acid accumulation in soybean leaves” value (Soybean) of the same compound?
**A.** accumulates to significantly high levels

**Q.** What about the “Shikimic acid in the culture supernatant” value ([2]; LBB427 transformed with pXT1457) of the same compound?
**A.** about 250 milligrams of shikimic acid per OD unit per liter

**Q.** What about the “Shikimic acid in the culture supernatant” value ([2]; LBB427 transformed with pXT1483) of the same compound?
**A.** about 400 milligrams of shikimic acid per OD unit per liter

**Q.** And the “Level of shikimic acid in the culture supernatant after acid and heat treatment of the culture sample” value ([2]; LBB427 transformed with pXT1483, sample with cells adjusted to pH 1.0, 60 degrees Celsius for 15 minutes)?
**A.** about 600 milligrams per OD unit per liter

**Q.** And the “Shikimic acid in the culture supernatant” value ([2]; untransformed host strain LBB427)?
**A.** about 200 milligrams of shikimic acid per OD unit per liter

**Q.** And the “Shikimic acid in the culture supernatant” value [3]?
**A.** about 24 grams of shikimic acid per liter

**Q.** What about the “Shikimic acid accumulation in alfalfa leaves over time” value (Alfalfa) of the same compound?
**A.** accumulates to significantly high levels
